This experiment addresses human P2X3 receptor (Homo sapiens (Human), UniProt P56373). Put plainly: Evaluation of human P2X3 receptor inhibitory activity (Test Example 1-2, FLIPR 384, 384-well, 150 nM ATP). In kind it is cell-based. The settings on record: human P2X3 receptor in C6BU-1 cells; Test Example 1-2 (compounds I-301 to I-483); read-out: P2X3 IC50. The protocol: Stably expressing cell line (C6BU-1 cell transfected with human P2X3 receptor gene (GenBank accession number Y07683) was used. The cells were seeded in a 384-well microtiter plate at a concentration of 3000 cells/well and cultured in the medium (7.0% fetal bovine serum, 7.0% horse serum, 1% antibiotic and antifungal in DMEM) for one day at 37° C. under 5% carbon dioxide atmosphere. The medium was replaced with 4 μM Fluo-3-AM solution (20 mM HEPES, […], 5.27 mM KCl, 0.9 mM MgCl2, 1.26 mM CaCl2, 5.6 mM D-glucose, 2.5 mM probenecid, 0.5% BSA, and 0.04% Pluronic F-127, pH 7.5) and incubated at 37° C. under 5% dioxide carbon atmosphere for one hour. The plate was washed with washing buffer (20 mM HEPES, 137 mM NaCl, 5.27 mM KCl, 0.9 mM MgCl2, 1.26 mM CaCl2, 5.6 mM D-glucose, 2.5 mM probenecid, pH7.5), and each well was added with 20 μL of this buffer. The plate was placed in High-Throughput Screening System FLIPR 384 (Molecular Device Co.). Measurement of fluorescence intensity by FLIPR 384 was started, and 20 μL of DMSO solutions containing different concentrations of the test compound as prepared by dilution with dilution buffer (20 mM HEPES, 137 mM NaCl, 5.27 mM KCl, 0.9 mM MgCl2, 1.26 mM CaCl2, 5.6 mM D-glucose, 2.5 mM probenecid, 0.1% Pluronic F-127, pH 7.5) were dispensed to each well through the built-in automatic dispenser. Five minutes after, 150 nM ATP solution (25 μL) prepared by dilution with the dilution buffer was dispensed through the built-in automatic dispenser, and the measurement of fluorescence intensity was continued for 4 min. For each well, the specific maximum fluorescence intensity was calculated as the ratio of the maximum fluorescence intensity after addition of the ATP solution to the fluorescence intensity at the starting of the measurement. The 50% inhibitory concentration (IC50) was calculated under the assumption that the specific maximum fluorescence intensity without test compound is 0% inhibition and that the specific maximum fluorescence intensity when the dilution buffer was added in place of ATP solution is 100% inhibition, to evaluate the inhibitory activity of the test compound. The specific maximum fluorescence intensity and IC50 were calculated using Spotfire (Science & Technology Systems, Inc.)
The data of the compounds I-001 to I-300 are the results by the method mentioned in Test Example 1-1, and the data of the compounds I-301 to I-483 are the results by the method mentioned in Test Example 1-2.

Molecules are shown by their SMILES.

human P2X3 receptor, sequence (P56373 whole entry): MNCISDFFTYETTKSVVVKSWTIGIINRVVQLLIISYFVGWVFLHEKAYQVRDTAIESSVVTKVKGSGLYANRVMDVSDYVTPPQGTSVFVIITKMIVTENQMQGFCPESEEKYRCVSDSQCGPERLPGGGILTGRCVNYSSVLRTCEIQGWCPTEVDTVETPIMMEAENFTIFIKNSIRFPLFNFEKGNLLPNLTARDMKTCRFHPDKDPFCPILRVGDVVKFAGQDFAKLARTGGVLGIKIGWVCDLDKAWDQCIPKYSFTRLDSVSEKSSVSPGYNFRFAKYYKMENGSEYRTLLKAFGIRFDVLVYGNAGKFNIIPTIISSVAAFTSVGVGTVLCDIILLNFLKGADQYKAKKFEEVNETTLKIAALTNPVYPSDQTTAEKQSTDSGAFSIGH

Take `NC(=O)c1cccc(Oc2ccc(/N=c3\[nH]cc(N4CCCC4=O)c(=O)n3Cc3ccc(Cl)cc3)cc2)n1` [Compound I-335]: the IC50 (in general, the concentration that gives 50% inhibition) was 227 nM. For the compound `O=C(O)c1cccc(Oc2ccc(/N=c3\[nH]cc(N4CCCC4=O)c(=O)n3Cc3ccc(Cl)cc3)cc2)n1` [Compound I-336], the IC50 stood at 41 nM. Regarding `CCC(=O)Nc1c[nH]/c(=N\c2ccc(Oc3cccc(CCC(=O)O)c3)cc2)n(Cc2ccc(Cl)cc2)c1=O` [Compound I-337], the IC50 stood at 76 nM. For the compound `COC(=O)[C@H](C)[C@H](C)n1c(=O)cc(Nc2ccc(Oc3ccc(F)nc3)c(C)n2)n(Cc2ccc(Cl)cc2)c1=O` [Compound I-338], the IC50 is 9 nM. Under `Cc1nc(Nc2cc(=O)n(C(C)C)c(=O)n2Cc2ccc(Cl)cc2)ccc1Oc1cccc(C#N)c1` [Compound I-340] stands 8 nM.

In the case of `Cc1nc(Nc2cc(=O)n(C(C)C)c(=O)n2Cc2ccc(Cl)cc2)ccc1Oc1cccc(C(=O)O)n1` [Compound I-341], the IC50 stood at 10 nM.

For `COCCn1c(=O)cc(Nc2ccc(Oc3ccc(F)nc3)cc2)n(Cc2ccc(Cl)cc2)c1=O` [Compound I-342], the IC50 was 10 nM. Turning to `CC(=O)OCC(=O)NNC(=O)c1c[nH]/c(=N\c2ccc(Oc3ccon3)cc2)n(Cc2ccc(Cl)cc2)c1=O` [Compound I-343], the 50% inhibitory concentration (IC50) was 84 nM. Take `C#CCNC(=O)c1c[nH]/c(=N\c2ccc(Oc3ccon3)cc2)n(Cc2ccc(Cl)cc2)c1=O` [Compound I-344]: the IC50 came out at 4 nM. Consider `Cc1noc(-c2c[nH]/c(=N\c3ccc(Oc4ccon4)cc3)n(Cc3ccc(Cl)cc3)c2=O)n1` [Compound I-345], for which the IC50 is 38 nM. With `CN(C)C(=O)c1c[nH]/c(=N\c2ccc(Oc3ccon3)cc2)n(Cc2ccc(Cl)cc2)c1=O` [Compound I-346], the IC50 stood at 346 nM. The same measure for `CC(=O)NNC(=O)c1c[nH]/c(=N\c2ccc(Oc3ccon3)cc2)n(Cc2ccc(Cl)cc2)c1=O` [Compound I-347]: 152 nM; for `CC(=O)OCc1nnc(-c2c[nH]/c(=N\c3ccc(Oc4ccon4)cc3)n(Cc3ccc(Cl)cc3)c2=O)o1` [Compound I-348]: 76 nM. The same measure for `Cc1nnc(-c2c[nH]/c(=N\c3ccc(Oc4ccon4)cc3)n(Cc3ccc(Cl)cc3)c2=O)o1` [Compound I-349]: 73 nM; for `COc1cn(Cc2ccc(Cl)cc2)c(Nc2ccc(Oc3cccc(C#N)n3)cc2)nc1=O` [Compound I-350]: 405 nM.

In the case of `COc1cn(Cc2ccc(Cl)cc2)c(Nc2ccc(Oc3cccc(F)n3)cc2)nc1=O` [Compound I-351, 1-(4-chlorobenzyl)-2-[4-(6-fluoro-2-pyridyloxy)phenylamino]-5-methoxypyrimidin-4(1H)-one], the IC50 came out at 98 nM. For `CC(c1ccc(F)cc1)n1cc(C(=O)NC2CCOCC2)c(=O)nc1Nc1ccc(Oc2cccc(F)n2)cc1` (centres unmarked) [Compound I-352], the IC50 was found to be 369 nM. As to `CC(C)c1c[nH]/c(=N\c2ccc(Oc3cccc(C(=O)O)n3)cc2)n(Cc2ccc(Cl)cc2)c1=O` [Compound I-353], the 50% inhibitory concentration (IC50) is 6 nM. The same measure for `CCC(=O)Nc1c[nH]/c(=N\c2ccc(Oc3cccc(CC(=O)O)c3)cc2)n(Cc2ccc(Cl)cc2)c1=O` [Compound I-355]: 53 nM; for `O=C1CCCN1C1=CN[C@@H](Nc2ccc(Oc3ccon3)cc2)N(Cc2ccc(Cl)cc2)C1=O` [Compound I-356]: 212 nM; for `Cc1ccccc1Cn1cc(C(=O)NC2CCOCC2)c(=O)nc1Nc1ccc(Oc2cccc(F)n2)cc1` [Compound I-357]: 781 nM. In the case of `CC(c1ccc(Cl)cc1)n1cc(C(=O)NC2CCOCC2)c(=O)nc1Nc1ccc(Oc2cccc(F)n2)cc1` (centres unmarked) [Compound I-358], the IC50 came to 23 nM. On to `O=C(NC1CCOCC1)c1cn(Cc2ccc(Cl)cc2)c(Nc2ccc3nc(C(F)F)sc3c2)nc1=O` [Compound I-359], for which the IC50 is 57 nM. `COC(=O)CCCn1c(=O)cc(Nc2ccc(Oc3ccc(F)cn3)c(C)n2)n(Cc2ccc(Cl)cc2)c1=O` [Compound I-360]: the half-inhibitory concentration (IC50) turned out to be 6 nM. The same measure for `Cc1nc(Nc2cc(=O)n(CCCC(=O)O)c(=O)n2Cc2ccc(Cl)cc2)ccc1Oc1ccc(F)cn1` [Compound I-361]: 32 nM. As for `COC(=O)[C@@H](C)Cn1c(=O)cc(Nc2ccc(Oc3ccc(F)cn3)c(C)n2)n(Cc2ccc(Cl)cc2)c1=O` [Compound I-362], the IC50 came out at 7 nM.

As to `Cc1nc(Nc2cc(=O)n(C[C@H](C)C(=O)O)c(=O)n2Cc2ccc(Cl)cc2)ccc1Oc1ccc(F)cn1` [Compound I-363], the IC50 was found to be 8 nM. As to `COC(=O)C(C)(C)Cn1c(=O)cc(Nc2ccc(Oc3ccc(F)cn3)c(C)n2)n(Cc2ccc(Cl)cc2)c1=O` [Compound I-364], the IC50 came to 4 nM.

In the case of `Cc1nc(Nc2cc(=O)n(CC(C)(C)C(=O)O)c(=O)n2Cc2ccc(Cl)cc2)ccc1Oc1ccc(F)cn1` [Compound I-365], the IC50 was determined as 5 nM. With `COC(=O)c1ccc(Oc2ccc(/N=c3\[nH]cc(C(C)C)c(=O)n3Cc3ccc(Cl)cc3)cc2)nc1` [Compound I-366], the IC50 came out at 91 nM. For the compound `COC(=O)c1cncc(Oc2ccc(/N=c3\[nH]cc(C(C)C)c(=O)n3Cc3ccc(Cl)cc3)cc2)c1` [Compound I-367], the IC50 stood at 471 nM.

`O=C(NCc1ccco1)c1cn(Cc2ccc(Cl)cc2)c(Nc2ccc(Oc3cccc(F)n3)cc2)nc1=O` [Compound I-369]: the IC50 is 120 nM. Take `CC(=O)NCCNC(=O)c1cn(Cc2ccc(Cl)cc2)c(Nc2ccc(Oc3cccc(F)n3)cc2)nc1=O` [Compound I-370]: the IC50 is 384 nM. For `Cc1cc(NC(=O)c2cn(Cc3ccc(Cl)cc3)c(Nc3ccc(Oc4cccc(F)n4)cc3)nc2=O)no1` [Compound I-371], the IC50 was determined as 80 nM. Regarding `O=C(Nc1ccon1)c1cn(Cc2ccc(Cl)cc2)c(Nc2ccc(Oc3cccc(F)n3)cc2)nc1=O` [Compound I-372], the IC50 turned out to be 51 nM. With `COCCCNC(=O)c1cn(Cc2ccc(Cl)cc2)c(Nc2ccc(Oc3cccc(F)n3)cc2)nc1=O` [Compound I-373], the IC50 amounted to 136 nM. With `CC(C)CNC(=O)c1cn(Cc2ccc(Cl)cc2)c(Nc2ccc(Oc3cccc(F)n3)cc2)nc1=O` [Compound I-374], the IC50 was determined as 46 nM. Take `NC(=O)[C@H](CO)NC(=O)c1cn(Cc2ccc(Cl)cc2)c(Nc2ccc(Oc3cccc(F)n3)cc2)nc1=O` [Compound I-375]: the IC50 amounted to 4 nM. `O=C(NC1CCCC1)c1cn(Cc2ccc(Cl)cc2)c(Nc2ccc(Oc3cccc(F)n3)cc2)nc1=O` [Compound I-376]: the IC50 came to 40 nM. In the case of `Cc1noc(C)c1NC(=O)c1cn(Cc2ccc(Cl)cc2)c(Nc2ccc(Oc3cccc(F)n3)cc2)nc1=O` [Compound I-377], the IC50 is 37 nM.

With `Cn1ccc(NC(=O)c2cn(Cc3ccc(Cl)cc3)c(Nc3ccc(Oc4cccc(F)n4)cc3)nc2=O)n1` [Compound I-378], the IC50 worked out at 20 nM. As for `O=C(NCC1COCCO1)c1cn(Cc2ccc(Cl)cc2)c(Nc2ccc(Oc3cccc(F)n3)cc2)nc1=O` (centres unmarked) [Compound I-379], the IC50 is 96 nM. The same measure for `CC(C)[C@H](NC(=O)c1cn(Cc2ccc(Cl)cc2)c(Nc2ccc(Oc3cccc(F)n3)cc2)nc1=O)C(N)=O` [Compound I-380]: 4 nM. On to `C[C@H](NC(=O)c1cn(Cc2ccc(Cl)cc2)c(Nc2ccc(Oc3cccc(F)n3)cc2)nc1=O)C(N)=O` [Compound I-381], for which the IC50 was 4 nM.

Values taken from patent publication US9550763B2, “Heterocyclic ring and carbocyclic derivative” (Shionogi & Co., Ltd., priority 2012, dated 2017).
